Measurements reported in PubChem BioAssay AID328 (DTP/NCI, 2004).
Where “and” joins values, the source holds several entries; their conditions need not be identical. Identical values can stand only once. Inconclusive results and toxic doses are left out.

Tested on: BDF1 mice, P388 leukemia ip, median survival T/C
Experiment: NCI In Vivo Anticancer Drug Screen. Data for tumor model P388 Leukemia (intraperitoneal) in B6D2F1 (BDF1) mice
Conditions: endpoint: median survival time, higher = longer survival
Summary of the method: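 Reported as T/C, where T is the survival measurement in dosed animals and C the same measurement in vehicle controls.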

[1] = dose: 100.0 mg/kg/injection, schedule: Q01DX001 (ip), vehicle: saline with Tween-80
[2] = dose: 200.0 mg/kg/injection, schedule: Q01DX001 (ip), vehicle: saline with Tween-80
[3] = dose: 50.0 mg/kg/injection, schedule: Q01DX009 (ip), vehicle: saline
[4] = dose: 100.0 mg/kg/injection, schedule: Q01DX009 (ip), vehicle: saline
[5] = dose: 200.0 mg/kg/injection, schedule: Q01DX009 (ip), vehicle: saline
[6] = dose: 100.0 mg/kg/injection, schedule: Q04DX003 (ip), vehicle: saline with Tween-80
[7] = dose: 200.0 mg/kg/injection, schedule: Q04DX003 (ip), vehicle: saline with Tween-80
[8] = dose: 400.0 mg/kg/injection, schedule: Q04DX003 (ip), vehicle: saline with Tween-80
[9] = dose: 50.0 mg/kg/injection, schedule: Q01DX009 (ip), vehicle: saline with Tween-80
[10] = dose: 100.0 mg/kg/injection, schedule: Q01DX009 (ip), vehicle: saline with Tween-80
[11] = dose: 200.0 mg/kg/injection, schedule: Q01DX009 (ip), vehicle: saline with Tween-80
[12] = dose: 100.0 mg/kg/injection, schedule: Q04DX003 (ip), vehicle: saline
[13] = dose: 200.0 mg/kg/injection, schedule: Q04DX003 (ip), vehicle: saline
[14] = dose: 400.0 mg/kg/injection, schedule: Q04DX003 (ip), vehicle: saline
[15] = dose: 25.0 mg/kg/injection, schedule: Q01DX009 (ip), vehicle: saline with Tween-80

Compound: O=C(O)C(CCCCC1CCCCC1)CCC1CCCCC1 (stereo not given)
- T/C (dose: 50.0 mg/kg/injection, schedule: Q01DX001 (ip), vehicle: saline with Tween-80): 100 % of control
- T/C [1]: 100 % of control
- T/C [2]: 100 % of control

Compound: CC1C(=O)CC(=O)C1=O (stereo not given)
- T/C [3]: 100 % of control
- T/C [4]: 104 % of control
- T/C [5]: 104 % of control

Compound: CC(C)(C)SC(=O)C[Si](C)(C)C
- T/C [6]: 113 % of control
- T/C [7]: 123 % of control

Compound: O=C(NC(CO)C(O)c1ccc([N+](=O)[O-])cc1)C(Cl)Cl (stereo not given)
- T/C [6]: 104 % of control
- T/C [7]: 100 % of control
- T/C [8]: 109 % of control

Compound: Cc1ccc(C(O)c2c(C)cc(C)cc2C)c(C)c1 (stereo not given)
- T/C [1]: 100 % of control
- T/C [2]: 100 % of control
- T/C (dose: 400.0 mg/kg/injection, schedule: Q01DX001 (ip), vehicle: saline with Tween-80): 100 % of control

Compound: ClC(Cl)(Cl)SSC(=Nc1ccccc1)SSC(Cl)(Cl)Cl
- T/C [9]: 106 % of control
- T/C [10]: 117 % of control

Compound: COc1ccccc1N1C(=O)CC(Sc2ccccc2N)C1=O (stereo not given)
- T/C [10]: 91 % of control
- T/C (dose: 132.0 mg/kg/injection, schedule: Q01DX009 (ip), vehicle: saline with Tween-80): 95 % of control
- T/C [11]: 105 % of control
- T/C (dose: 300.0 mg/kg/injection, schedule: Q01DX009 (ip), vehicle: saline with Tween-80): 105 % of control
- T/C (dose: 400.0 mg/kg/injection, schedule: Q01DX009 (ip), vehicle: saline with Tween-80): 91 % of control

Compound: C=C1C(=O)OC2C1CC/C(C)=C/CCC1(C)OC21 (stereo not given)
- T/C (dose: 70.0 mg/kg/injection, schedule: Q01DX009 (ip), vehicle: Klucel (hydroxypropylcellulose) (HPC)): 116 % of control

Compound: O=C1OC(O)(c2ccccc2)C(c2ccccc2)=C1c1ccccc1 (stereo not given)
- T/C [9]: 119 % of control
- T/C [10]: 110 % of control
- T/C [11]: 108 % of control

Compound: CC12CCC(O)CC1CCC1C2CCC2(C)C(c3ccc(=O)oc3)C(O)C3OC132 (stereo not given)
- T/C (dose: 3.5 mg/kg/injection, schedule: Q01DX009 (ip), vehicle: Klucel (hydroxypropylcellulose) (HPC)): 100 % of control
- T/C (dose: 7.0 mg/kg/injection, schedule: Q01DX009 (ip), vehicle: Klucel (hydroxypropylcellulose) (HPC)): 102 % of control

Compound: CCN(CC)C(=O)Cn1cc(F)c(N)nc1=O
- T/C [4]: 95 % of control
- T/C [12]: 110 % of control
- T/C [5]: 90 % of control
- T/C [13]: 100 % of control
- T/C [14]: 100 % of control

Compound: C(#Cc1ccccc1)COCC1CO1 (stereo not given)
- T/C [10]: 116 % of control
- T/C [12]: 90 % of control
- T/C [13]: 90 % of control
- T/C [14]: 120 % of control

Compound: C=C(CCC(C(=O)O)C1CCC2(C)C3=C(CCC12C)C1(C)CCC(O)C(C)(C)C1CC3)C(C)C (stereo not given)
- T/C (dose: 12.5 mg/kg/injection, schedule: Q01DX009 (sc), vehicle: steriod suspending solution): 100 % of control
- T/C (dose: 25.0 mg/kg/injection, schedule: Q01DX009 (sc), vehicle: steriod suspending solution): 99 % of control
- T/C (dose: 50.0 mg/kg/injection, schedule: Q01DX009 (ip), vehicle: steriod suspending solution): 87 % of control
- T/C (dose: 50.0 mg/kg/injection, schedule: Q01DX009 (sc), vehicle: steriod suspending solution): 98 % of control
- T/C (dose: 100.0 mg/kg/injection, schedule: Q01DX009 (ip), vehicle: steriod suspending solution): 92 % of control
- T/C (dose: 100.0 mg/kg/injection, schedule: Q01DX009 (sc), vehicle: steriod suspending solution): 101 % of control and 106 % of control
- T/C (dose: 200.0 mg/kg/injection, schedule: Q01DX009 (sc), vehicle: steriod suspending solution): 91 % of control

Compound: CC(=O)[C@H]1CC[C@H]2[C@@H]3CCC4=CC(=O)[C@H](C)C[C@]4(C)[C@@]3(F)[C@@H](O)C[C@]12C
- T/C [15]: 100 % of control
- T/C [9]: 100 % of control
- T/C [10]: 95 % of control and 104 % of control
- T/C [6]: 100 % of control
- T/C [7]: 100 % of control
- T/C [8]: 90 % of control

Compound: c1ccc(COCC[P+](c2ccccc2)(c2ccccc2)c2ccccc2)cc1
- T/C (dose: 2.5 mg/kg/injection, schedule: Q01DX010 (ip), vehicle: saline): 90 % of control
- T/C (dose: 5.0 mg/kg/injection, schedule: Q01DX010 (ip), vehicle: saline): 100 % of control
- T/C (dose: 10.0 mg/kg/injection, schedule: Q01DX010 (ip), vehicle: saline): 113 % of control

Compound: CN(C(=O)c1ccccc1)N(C)C(=O)c1ccccc1
- T/C (dose: 12.5 mg/kg/injection, schedule: Q04DX003 (ip), vehicle: Klucel (hydroxypropylcellulose) (HPC)): 90 % of control
- T/C (dose: 25.0 mg/kg/injection, schedule: Q04DX003 (ip), vehicle: Klucel (hydroxypropylcellulose) (HPC)): 109 % of control
- T/C (dose: 50.0 mg/kg/injection, schedule: Q04DX003 (ip), vehicle: Klucel (hydroxypropylcellulose) (HPC)): 100 % of control

Compound: Cc1c2c(cc3c1[nH]c1ccccc13)C=NCC2
- T/C [9]: 93 % of control
- T/C [10]: 99 % of control
- T/C [11]: 101 % of control

Compound: Cc1cnc2c(C)cccc2c1/C=C/c1ccc(N(C)C)cc1
- T/C [9]: 116 % of control
- T/C [10]: 116 % of control
- T/C [11]: 103 % of control

Compound: Cc1ccc2nc(-c3ccc(CSC(=N)N)cc3)oc(=O)c2c1
- T/C (dose: 0.78 mg/kg/injection, schedule: Q01DX009 (ip), vehicle: saline with Tween-80): 96 % of control
- T/C (dose: 1.56 mg/kg/injection, schedule: Q01DX009 (ip), vehicle: saline with Tween-80): 99 % of control
- T/C (dose: 3.12 mg/kg/injection, schedule: Q01DX009 (ip), vehicle: saline with Tween-80): 96 % of control

Compound: Cn1c(N)c(N=Cc2ccc(Cl)cc2)c(=O)n(C)c1=O
- T/C [6]: 92 % of control
- T/C [7]: 99 % of control

Compound: O=C(O)C(=O)O.OO.OO.OO.[Nb]
- T/C [5]: 86 % of control

Compound: CC1(C)N=C(N)N=C(N)N1c1cccc(OCCOc2ccc([N+](=O)[O-])cc2)c1
- T/C (dose: 50.0 mg/kg/injection, schedule: Q01DX009 (ip), vehicle: saline sonified): 110 % of control
- T/C (dose: 50.0 mg/kg/injection, schedule: Q04DX003 (ip), vehicle: saline sonified): 100 % of control
- T/C (dose: 100.0 mg/kg/injection, schedule: Q01DX009 (ip), vehicle: saline sonified): 160 % of control
- T/C (dose: 100.0 mg/kg/injection, schedule: Q04DX003 (ip), vehicle: saline sonified): 107 % of control
- T/C (dose: 200.0 mg/kg/injection, schedule: Q04DX003 (ip), vehicle: saline sonified): 107 % of control

Compound: CC(C)(C)CC(C)(C)c1ccc(O)cc1
- T/C [12]: 100 % of control
- T/C [13]: 115 % of control
- T/C [14]: 120 % of control

Compound: c1ccc(C([CH2][Hg][CH2]C(c2ccccc2)c2ccccc2)c2ccccc2)cc1
- T/C (dose: 100.0 mg/kg/injection, schedule: Q01DX009 (ip), vehicle: other): 100 % of control
- T/C (dose: 100.0 mg/kg/injection, schedule: Q04DX003 (ip), vehicle: Klucel (hydroxypropylcellulose) (HPC)): 100 % of control
- T/C (dose: 200.0 mg/kg/injection, schedule: Q01DX009 (ip), vehicle: other): 104 % of control
- T/C (dose: 200.0 mg/kg/injection, schedule: Q04DX003 (ip), vehicle: Klucel (hydroxypropylcellulose) (HPC)): 116 % of control
- T/C (dose: 400.0 mg/kg/injection, schedule: Q01DX009 (ip), vehicle: other): 114 % of control
- T/C (dose: 400.0 mg/kg/injection, schedule: Q04DX003 (ip), vehicle: Klucel (hydroxypropylcellulose) (HPC)): 100 % of control

Compound: O=C(O)C1CCC[N-]C1.O=C(O)C1CCC[N-]C1.O=C(O)C1CCC[N-]C1.O=C(O)C1CCC[N-]C1.[Cl][Rh][Cl] (stereo not given)
- T/C (dose: 4.0 mg/kg/injection, schedule: Q01DX009 (ip), vehicle: saline): 100 % of control
- T/C (dose: 8.0 mg/kg/injection, schedule: Q01DX009 (ip), vehicle: saline): 99 % of control
- T/C (dose: 10.0 mg/kg/injection, schedule: Q01DX009 (ip), vehicle: saline): 118 % of control
- T/C (dose: 16.0 mg/kg/injection, schedule: Q01DX009 (ip), vehicle: saline): 93 % of control
- T/C (dose: 20.0 mg/kg/injection, schedule: Q01DX009 (ip), vehicle: saline): 98 % of control
- T/C (dose: 40.0 mg/kg/injection, schedule: Q01DX009 (ip), vehicle: saline): 98 % of control
- T/C [3]: 100 % of control
- T/C [4]: 86 % of control
- T/C [12]: 100 % of control
- T/C [13]: 108 % of control
- T/C [14]: 102 % of control

Compound: NC(N)=NC(N)=Nc1ccc(-c2ccc(N=C(N)N=C(N)N)cc2)cc1
- T/C (dose: 12.5 mg/kg/injection, schedule: Q01DX009 (ip), vehicle: saline with Tween-80): 151 % of control
- T/C [15]: 89 % of control

Compound: O=C(NC1CCC1C(=O)O)OCc1ccccc1 (stereo not given)
- T/C (dose: 100.0 mg/kg/injection, schedule: Q04DX002 (ip), vehicle: saline with Tween-80): 101 % of control
- T/C (dose: 200.0 mg/kg/injection, schedule: Q04DX002 (ip), vehicle: saline with Tween-80): 104 % of control
- T/C (dose: 400.0 mg/kg/injection, schedule: Q04DX002 (ip), vehicle: saline with Tween-80): 110 % of control

Compound: CCCCCCCCCCCC(=O)CC(SCC)c1ccccc1 (stereo not given)
- T/C [9]: 96 % of control
- T/C [10]: 87 % of control
- T/C [11]: 89 % of control
